Legend:
Type in all cases: in vivo, C57BL/6J male mice
aged mice = experiment: Whole-body tension (digital force gauge); conditions: DRH group; decrease in NC vs YC
Procedure: The whole-body tension was measured and evaluated using a digital force gauge (Korea, JM Instruments Corp., FGJN.FGP Series). For each mouse, the whole-body tension was measured and evaluated at intervals of 5 days. In order to evaluate the whole-body tension on week 10 of the experiment, the average value of the maximum whole-body tension was calculated as force per body weight (Ng^−1 BW).

gastrocnemius tissue = experiment: H&E and Sirius red staining of gastrocnemius tissue
Procedure: (§1) For morphological tissue observation, parts of liver and muscle tissues were fixed with a 10% formaldehyde solution for 24 hours. Thereafter, the samples were subjected to replacement with the same solution twice, dehydrated twice with ethanol, embedded in paraffin, and treated with poly-L-lysine to prepare tissue slices having a thickness of 5 μm. For morphological analysis, among the prepared tissue sections, the liver tissue was stained with H&E and MT, and the muscle tissue was stained with H&E and Sirius red, and magnified 200 times under an optical microscope. For IHC analysis, the muscle tissue was stained with IGF-1 and Myostatin, and then observed under an optical microscope.

[1] = system: insulin-like growth factor 1 (IGF-1); experiment: IHC analysis of muscle tissue, IGF-1; conditions: reduction in NC vs YC
Procedure: as §1

[2] = system: MyoD, Myf5, Myf6, Myogenin, Mef2, MuRF1, Atrogin1, FoxO3; experiment: Real-time PCR of muscle strength-related genes
Procedure: After total RNA was isolated, total complementary DNA (cDNA) was synthesized. For real-time PCR analysis, template cDNA was diluted with RNAse-free water and used at a concentration of 25 ng/μL. Then, gene expression was analyzed using a QuantitTeck SYBR Green PCR kit (QIAGEN, Germany).
Each of the reaction solutions consisted of 10 μL of SYBR Green, 2 μL of a template, and 200 μM primers. RNAse-free water was added to a final volume of 20 μL, and reacted at 94° C. for 15 seconds, and then 58° C. and 72° C. for 30 seconds. The reaction solution was reacted 40 times at 65° C. for 30 seconds at 15 seconds per cycle. In this case, by monitoring the fluorescence signal for each cycle and analyzing the resulting threshold cycle (Ct), mRNA expression between the respective experimental groups was quantitatively analyzed using a CFX96 Real-time system (Bio-Rad, USA). GAPDH (Gene ID 14433) was used as an internal transcriptional marker, and the gene primers used for amplification were as follows: MyoD (myoblast determination protein 1, Gene ID 17927), Myf5 (Gene ID 17877), Myf6 (Gene ID 17878), Myogenin (Gene ID 17928), Mef2 (Gene ID 17260), MuRF1 (Gene ID […]), Atrogin1 (Gene ID 67731), FoxO3 (Gene ID 56484), CerS1 (Gene ID 93898(3)1), CIDEC1 (Gene ID 12700), SCD1 (Gene ID 20249), Adipsin (complement factor D, Gene ID 11537), Adiponectin (Gene ID 11450), Haptoglobin (Gene ID 15439), and Neuronatin (Gene ID 18111).

[3] = system: CISH, CerS1, Adiponectin, Adipsin, CIDEC, Haptoglobin, Neuronatin, SCD1; experiment: mRNA sequencing of gastrocnemius tissue (differentially expressed genes); conditions: vs NC group, FC cutoff 2 or more, p < 0.05
TNF-α, IL-4, IL-1β, IL-6 = experiment: Plasma inflammatory cytokine levels; conditions: between the groups (YC, NC, DRH)
Procedure: (§2) For cytokine analysis, plasma cytokines (TNF-α, IL-1β, and IL-4) were measured with a Merck Millipore product (MCYTOMAG-70K, Merck, USA). Plasma (30 μL) from each mouse was analyzed in duplicate. Hormone analysis was performed using a cortisol and testosterone parameter assay kit (R&D Systems, USA).

GSH, PON, GR = experiment: Antioxidant enzyme activity in liver and plasma; conditions: DRH supplementation; decrease in NC vs YC
Procedure: To analyze antioxidant activity, superoxide dismutase (SOD) activity was measured in an alkaline state by pyrogallol autoxidation using a modified method of Marklund et al. Also, catalase (CAT) activity was measured using a modified method of Aebi et al. Paraoxonase (PON) activity was measured using a modified method of Mackness et al. in order to measure an increase in absorbance of p-nitrophenol. Glutathione reductase (GR) activity was measured using a modified method of Pinto and Bartley, which was used to measure NADPH oxidation. Total glutathione (GSH) content was measured using a modified method of Ellman et al.

[4] = Liver and erythrocyte H2O2 content and TBARs; conditions: DRH supplementation; increase in NC vs YC
[5] = Muscle and liver glycogen and fasting blood glucose
Procedure: Specifically, a negative control group (NC, n=7, American Institute of Nutrition AIN-93G Semisynthetic diet); a D-ribo-2-hexulose-treated group (D-ribo-2-hexulose; DRH, n=7; a portion of cellulose in AIN-93G was replaced with 3% D-ribo-2-hexulose). […] The dose of D-ribo-2-hexulose was set at 3% based on previous animal studies. In the previous studies, the dose of D-ribo-2-hexulose was determined to be 3% in order to investigate a biological effect at a lower dose than the dose. During the experiment, the mice had free access to distilled water, and the food intakes and body weights of the mice were measured weekly, and blood glucose was measured once every 4 weeks. All animal experiments were approved by the Animal Research Ethics Committee of KyungPook National University (Approval Number: KNU-2020-109).

[6] = Testosterone and cortisol levels
Procedure: as §2

[7] = decrease in NC vs YC, DRH vs NC significant

## O=C(CO)[C@H](O)[C@H](O)[C@H](O)CO [DRH, D-ribo-2-hexulose]
Aged mice
  whole-body tension: dramatically compensated for the decrease
Gastrocnemius tissue; DRH group
  progression of fibrosis (Sirius red staining): reduced to that of the YC group
Gastrocnemius tissue; reduction observed in NC group
  size of muscle fibers (H&E staining): improved
[1]
  expression level of IGF-1: improved this reduction
[2]; all three groups (YC, NC, DRH)
  expression of Atrogin1 gene: no significant difference
  expression of FoxO3 gene: no significant difference
  expression of MuRF1 gene: no significant difference
  expression of MyoD gene: no significant difference
[2]; [7]
  expression of Myf5 gene: partially improved
  expression of Myf6 gene: partially improved
  expression of Myogenin gene: partially improved
[3]
  Adiponectin expression (mRNA-seq): down-regulated
  Adipsin expression (mRNA-seq): down-regulated
  CIDEC expression (mRNA-seq): down-regulated
  CISH expression (mRNA-seq): up-regulated
  CerS1 expression (mRNA-seq): up-regulated
  Haptoglobin expression (mRNA-seq): down-regulated
  Neuronatin expression (mRNA-seq): down-regulated
  SCD1 expression (mRNA-seq): down-regulated
TNF-α, IL-4, IL-1β, IL-6
  level of inflammatory cytokine IL-1β: not significantly different
  level of inflammatory cytokine IL-4: not significantly different
  level of inflammatory cytokine IL-6: not significantly different
  level of inflammatory cytokine TNF-α: not significantly different
GSH, PON, GR
  liver GR activity: increased
  liver GSH-Px activity: increased
  liver PON activity: increased
  plasma PON activity: increased
[4]
  liver H2O2 content: significantly reduced
[5]; at 12 weeks, DRH group vs NC group
  fasting blood glucose level: significantly decreased
[5]; between the groups
  liver glycogen content: not significantly different
[5]; quadriceps, between the groups
  muscle glycogen content: not significantly different
[6]; DRH group
  cortisol level: decreased
[6]; DRH group vs NC group
  testosterone level: did not show a significant difference

Reference: patent publication US12582614B2, “Composition for preventing, alleviating or treating sarcopenia, containing D-ribo-2-hexulose as active ingredient” (KYUNGPOOK NATIONAL UNIVERSITY INDUSTRY-ACADEMIC COOPERATION …, priority 2021, dated 2026)
